Converted amounts (≈) assume the structure as drawn. Blank lines part the entries; values can stand above or below the molecule they belong to.
Columns and labels:
Acinetobacter baumannii [1] = assay: (§1) Antibacterial activity against Acinetobacter baumannii CLB21655 infected in female DBA mouse lung infection model assessed as fold change in colony forming units in lung at 640 mg/kg, sc pre-infected with bacteria for 2 hrs followed by compound administration and measured after 24 hrs in presence of avibactam relative to control; assay type: functional
Acinetobacter baumannii [2] = assay: as §1, with “reduction” for “fold change”, “bacterial burden” for “colony forming units”, “(reference value: 9.7 log10CFU/g)” for “relative to control”; assay type: functional
Acinetobacter baumannii [3] = assay: (§2) Antibacterial activity against Acinetobacter baumannii CLB21655 infected in female DBA mouse blood stream infection model assessed as fold change in colony forming units in spleen at 10 mg/kg, sc pre-infected with bacteria for 0.5 hrs followed by once daily compound administration and measured after 8 hrs relative to control; assay type: functional
Acinetobacter baumannii [4] = assay: as §2, with “thrice” for “once”; assay type: functional
Acinetobacter baumannii [5] = assay: as §1, with “10” for “640”, “hrs” for “hrs in presence of avibactam”; assay type: functional
Acinetobacter baumannii [6] = assay: (§3) Antibacterial activity against Acinetobacter baumannii CLB21655 infected in female DBA mouse lung infection model assessed as reduction in bacterial burden in lung at 10 mg/kg, sc pre-infected with bacteria for 2 hrs followed by compound administration and measured after 24 hrs (reference value: 6.3 log10CFU/g); assay type: functional
Acinetobacter baumannii [7] = assay: as §3, with “mouse blood stream” for “mouse lung”, “in spleen” for “in lung”, “for 0.5” for “for 2”, “by once daily” for “by”, “after 8” for “after 24”, “value: 5.85” for “value: 6.3”; assay type: functional
Acinetobacter baumannii [8] = assay: as §3, with “mouse blood stream” for “mouse lung”, “in spleen” for “in lung”, “for 0.5” for “for 2”, “by thrice daily” for “by”, “after 8” for “after 24”; assay type: functional
Acinetobacter baumannii [9] = assay: Antibacterial activity against Acinetobacter baumannii ATCC19606 assessed as bacterial growth inhibition incubated for 18 to 20 hrs by microbroth dilution method; assay type: functional; details: time 18-20 hrs
[10] = Cytotoxicity against GFP fused human MT4 cells cultured under serum free condition for 24 hrs by CellTiter-Glo assay; assay type: toxicity, cell-based; details: GFP fused MT4 cells
[11] = Cmax in male C57BL/6 mouse at 300 mg/kg, sc administered 3 times a day with 3 hrs interval and measured after 24 hrs by LC-MS/MS analysis; assay type: ADME, organism-based; details: in vivo
[12] = Inhibition of wildtype Acinetobacter baumannii MsbA preincubated for 30 mins followed by ATP addition and measured after 1 hrs by Transcreener ADP2 F1 assay
Acinetobacter baumannii [13] = assay: Antibacterial activity against Acinetobacter baumannii ATCC19606 incubated for 18 to 20 hrs in presence of 10% human serum by microbroth dilution method; assay type: functional; details: time 18-20 hrs
[14] = AUC (0 to infinity) in male C57BL/6 mouse at 300 mg/kg, sc administered once in a day and measured after 24 hrs by LC-MS/MS analysis; assay type: ADME, organism-based; details: mouse, in vivo, sc, 300 mg/kg, 24 h
Acinetobacter baumannii [15] = assay: as §1, with “300” for “640”, “by thrice daily” for “by”, “administration with 6 hrs interval” for “administration”, “hrs” for “hrs in presence of avibactam”; assay type: functional
Acinetobacter baumannii [16] = assay: Selectivity ratio of MIC95 for antibacterial activity against Acinetobacter baumannii ATCC19606 in the presence of 10% human serum to MIC95 for antibacterial activity against Acinetobacter baumannii ATCC19606; assay type: functional
Acinetobacter baumannii [17] = assay: as §3, with “at 300” for “at 10”, “by thrice daily” for “by”, “administration with 6 hrs interval” for “administration”; assay type: functional
[18] = Cmax in male C57BL/6 mouse at 300 mg/kg, sc administered once in a day and measured after 24 hrs by LC-MS/MS analysis; assay type: ADME, organism-based; details: in vivo
Acinetobacter baumannii [19] = assay: as §2, with “300” for “10”; assay type: functional
[20] = Plasma protein binding in C57BL/6 mouse at 1000 to 100000 ng/ml by equilibrium dialysis based LC-MS/MS analysis; assay type: ADME, cell-free; details: dose 1000-100000 ng/ml, read-out: PPB (converted)
Acinetobacter baumannii [21] = assay: Antibacterial activity against Acinetobacter baumannii ATCC19606 incubated for 18 to 20 hrs in presence of 50% mouse serum by microbroth dilution method; assay type: functional; details: time 18-20 hrs
[22] = Plasma protein binding in human at 1000 to 100000 ng/ml by equilibrium dialysis based LC-MS/MS analysis; assay type: ADME, cell-free; details: dose 1000-100000 ng/ml, read-out: PPB (converted)
[23] = AUC (0 to infinity) in male C57BL/6 mouse at 300 mg/kg, sc administered 3 times a day with 3 hrs interval and measured after 24 hrs by LC-MS/MS analysis; assay type: ADME, organism-based; details: mouse, in vivo, sc, 300 mg/kg, 24 h
Acinetobacter baumannii [24] = assay: (§4) Antibacterial activity against Acinetobacter baumannii CLB21655 infected in female DBA mouse blood stream infection model assessed as reduction in bacterial burden in spleen at 300 mg/kg, sc pre-infected with bacteria for 0.5 hrs followed by once daily compound administration and measured after 8 hrs (reference value: 6.5 log10CFU/g); assay type: functional
[25] = Plasma protein binding in dog at 1000 to 100000 ng/ml by equilibrium dialysis based LC-MS/MS analysis; assay type: ADME, cell-free, Canis lupus familiaris; details: dose 1000-100000 ng/ml, read-out: PPB (converted)
Acinetobacter baumannii [26] = assay: as §1, with “160” for “640”, “ceftazidime” for “avibactam”; assay type: functional
Acinetobacter baumannii [27] = assay: Antibacterial activity against Acinetobacter baumannii CLB21655 infected in female DBA mouse lung infection model assessed as reduction in bacterial burden in lung at 160 mg/kg, sc pre-infected with bacteria for 2 hrs followed by compound administration and measured after 24 hrs in presence of ceftazidime (reference value: 9.7 log10CFU/g); assay type: functional
Acinetobacter baumannii [28] = assay: as §4, with “100” for “300”; assay type: functional
Acinetobacter baumannii [29] = assay: Antibacterial activity against Acinetobacter baumannii ATCC19606 incubated for 18 to 20 hrs in presence of 1% of human serum by microbroth dilution method; assay type: functional; details: time 18-20 hrs
Acinetobacter baumannii [30] = assay: as §4, with “thrice” for “once”, “6.3” for “6.5”; assay type: functional
Acinetobacter baumannii [31] = assay: as §1, with “300” for “640”, “by once daily” for “by”, “hrs” for “hrs in presence of avibactam”; assay type: functional
Acinetobacter baumannii [32] = assay: Selectivity ratio of MIC95 for antibacterial activity against Acinetobacter baumannii ATCC19606 in the presence of 1% human serum to MIC95 for antibacterial activity against Acinetobacter baumannii ATCC19606; assay type: functional
Acinetobacter baumannii [33] = assay: as §2, with “200” for “10”; assay type: functional
Acinetobacter baumannii [34] = assay: as §3, with “at 300” for “at 10”, “by thrice daily” for “by”, “administration with 3 hrs interval” for “administration”, “value: 9.7” for “value: 6.3”; assay type: functional
Acinetobacter baumannii [35] = assay: as §4, with “200” for “300”; assay type: functional
Acinetobacter baumannii [36] = assay: as §3, with “at 300” for “at 10”, “by once daily” for “by”, “value: 9.7” for “value: 6.3”; assay type: functional
Acinetobacter baumannii [37] = assay: as §1, with “300” for “640”, “by thrice daily” for “by”, “administration with 3 hrs interval” for “administration”, “hrs” for “hrs in presence of avibactam”; assay type: functional
Acinetobacter baumannii [38] = assay: as §2, with “100” for “10”; assay type: functional

SMILES: CC(C)(O/N=C(\C(=O)N[C@@H]1C(=O)N2C(C(=O)[O-])=C(C[n+]3ccccc3)CS[C@H]12)c1csc(N)n1)C(=O)O [CEFTAZIDIME]
fold change (FC) (Acinetobacter baumannii [1]): 2.1 | Activity (Acinetobacter baumannii [2]): 7.6 log10CFU/g

SMILES: CN(C)c1cc(NC(=O)CNC(C)(C)C)c(O)c2c1C[C@H]1C[C@H]3[C@H](N(C)C)C(O)=C(C(N)=O)C(=O)[C@@]3(O)C(O)=C1C2=O [TIGECYCLINE]
fold change (FC) (Acinetobacter baumannii [3]): 3 | fold change (FC) (Acinetobacter baumannii [4]): 2.8 | fold change (FC) (Acinetobacter baumannii [5]): 2.8 | Activity (Acinetobacter baumannii [6]): 3.5 log10CFU/g | Activity (Acinetobacter baumannii [7]): 2.85 log10CFU/g | Activity (Acinetobacter baumannii [8]): 3.5 log10CFU/g

MIC95 (Acinetobacter baumannii [9]): 0.277 µM (≈ 0.223 µg/mL) | Cmax [11]: 626 µM | EC50 [12]: 69 nM | MIC95 (Acinetobacter baumannii [13]): 6.25 µM | AUC [14]: 2270 µM·h | Cmax [18]: 662 µM | fraction unbound [20]: 0.002 | MIC95 (Acinetobacter baumannii [21]): 50 µM | fraction unbound [22]: 0.006 | AUC [23]: 22200 µM·h | fraction unbound [25]: 0.004
SMILES: O=C(O)c1cc(CN2CC(Oc3ccc(NS(=O)(=O)c4cnn(-c5ccc(F)cc5)c4)c(C(=O)O)c3)C2)ccc1NS(=O)(=O)c1cnn(-c2ccc(F)cc2)c1
EC50 at 24 h [10]: > 42000 nM | fold change (FC) (Acinetobacter baumannii [15]): 1.9 | Selectivity ratio (Acinetobacter baumannii [16]): 23 | Activity (Acinetobacter baumannii [17]): 4.4 log10CFU/g | fold change (FC) (Acinetobacter baumannii [19]): 3.2 | Activity (Acinetobacter baumannii [24]): 3.3 log10CFU/g

SMILES: NC(=O)[C@@H]1CC[C@@H]2CN1C(=O)N2OS(=O)(=O)O [AVIBACTAM]
fold change (FC) (Acinetobacter baumannii [26]): 2.1 | Activity (Acinetobacter baumannii [27]): 7.6 log10CFU/g

MIC95 (Acinetobacter baumannii [9]): 0.277 µM (≈ 0.228 µg/mL) | MIC95 (Acinetobacter baumannii [29]): 2.03 µM | EC50 [12]: 50 nM | fraction unbound [20]: 0.004 | MIC95 (Acinetobacter baumannii [21]): 50 µM
SMILES: O=C(CCCOc1ccc(NS(=O)(=O)c2cnn(-c3ccc(F)cc3)c2)c(C(=O)O)c1)Nc1ccc(NS(=O)(=O)c2cnn(-c3ccc(F)cc3)c2)c(C(=O)O)c1
Activity (Acinetobacter baumannii [28]): 5.9 log10CFU/g | fold change (FC) (Acinetobacter baumannii [4]): 1.9 | EC50 at 24 h [10]: > 42000 nM | Activity (Acinetobacter baumannii [30]): 4.4 log10CFU/g | fold change (FC) (Acinetobacter baumannii [31]): 0.9 | Selectivity ratio (Acinetobacter baumannii [32]): 7.3 | fold change (FC) (Acinetobacter baumannii [33]): 0 | fold change (FC) (Acinetobacter baumannii [19]): 0.36 | Activity (Acinetobacter baumannii [34]): 8.3 log10CFU/g | Activity (Acinetobacter baumannii [35]): 6.5 log10CFU/g | Activity (Acinetobacter baumannii [36]): 8.8 log10CFU/g | fold change (FC) (Acinetobacter baumannii [37]): 1.4 | Activity (Acinetobacter baumannii [24]): 6.2 log10CFU/g | fold change (FC) (Acinetobacter baumannii [38]): 0.63

Reference: ChEMBL document CHEMBL5584343, “Cerastecin Inhibition of the Lipooligosaccharide Transporter MsbA to Combat Acinetobacter baumannii: From Screening Impurity to In Vivo Efficacy” (J Med Chem, 2024)
